Data reported in patent US20130338217A1, “ANTIBIOTIC COMPOSITION INCLUDING PHLOROTANNIN COMPOUND DERIVED FROM EISENIA BICYCLIS AS EFFECTIVE COMPONENT” (PUKYONG NATIONAL UNIVERSITY INDUSTRY-UNIVERSITY C, priority 2012, published 2013).
Values after ≈ are worked out from the molar mass of the structure shown. Where two headings read alike, the source gives them in different places.

Experiments:
Assay type in all cases: cell-based, Staphylococcus aureus
MRSA (KCCM 40510) [1] = experiment: Checkerboard synergy of phlorofucofuroeckol-A and β-lactams, MRSA KCCM 40510; details: for MIC: Staphylococcus aureus; for FIC index (b): β-lactam with phlorofucofuroeckol-A at 12.5 μg/ml; for FIC index (b) / FIC index (c): synergism ≦0.5, indifference >0.5 to ≦4, antagonism >4; for FIC index (c): β-lactam with phlorofucofuroeckol-A at 25 μg/ml
Description: (§1) The interaction between phlorofucofuroeckol-A (PFF) and β-lactams including ampicillin, penicillin and oxacillin against MRSA was tested by the checkerboard method. The synergistic effect was evaluated as a fractional inhibitory concentration (FIC) index. The FIC was calculated as the MICS of an antibiotic or phlorofucofuroeckol-A (PFF) in combination divided by the MIC of the antibiotic or PFF alone as follows.
(§2) The FIC was then summed to derive the FIC index, which indicated synergy when index values were as follows:
(§3) synergism ≦≦0.5, indifference >0.5 to ≦≦4, antagonism >4.
(§4) FICA=MICA in combination/MICA, FICB=MICB in combination/MICB

MSSA (KCTC 1927) = experiment: Minimum inhibitory concentration, two-fold serial dilution, MSSA KCTC 1927; details: Staphylococcus aureus
Description: (§5) All the bacterial strains used for the Example were obtained from the Korean Collection of Type Cultures (KCTC; Daejeon, Korea) and the Korean Culture Center of Microorganisms (KCCM; Seoul, Korea). The bacterial strains used for the Example were methicillin-susceptible S. aureus (MSSA; KCTC 1927), two MRSA strains (KCCM 40510 and KCCM 40511). All strains were grown in Mueller-Hinton broth (MHB; Difco, Detroit, USA) or Tryptic soy broth (TSB; Difco) for minimum inhibitory concentration (MIC) assay and in Mueller-Hinton agar (MHA; Difco) for disc diffusion.
(§6) MIC means the lowest concentration of antimicrobials that will inhibit the visible growth of microorganisms after overnight incubation. MICS of the extracts and vancomycin were determined by the two-fold serial dilution method in MHB.

MSSA (KCCTC 1927) = experiment: Checkerboard synergy of phlorofucofuroeckol-A and β-lactams, MSSA KCTC 1927; details: for MIC: Staphylococcus aureus, MSSA; for FIC index (b): β-lactam with phlorofucofuroeckol-A at 12.5 μg/ml; for FIC index (b) / FIC index (c): synergism ≦0.5, indifference >0.5 to ≦4, antagonism >4; for FIC index (c): β-lactam with phlorofucofuroeckol-A at 25 μg/ml
MRSA (KCCM 40511) [2] = experiment: Checkerboard synergy of phlorofucofuroeckol-A and β-lactams, MRSA KCCM 40511; details: for MIC: Staphylococcus aureus; for FIC index (b): β-lactam with phlorofucofuroeckol-A at 12.5 μg/ml; for FIC index (b) / FIC index (c): synergism ≦0.5, indifference >0.5 to ≦4, antagonism >4; for FIC index (c): β-lactam with phlorofucofuroeckol-A at 25 μg/ml
Description: as §1, §2, §3, §4

MRSA (KCCM 40510) [3] = experiment: Minimum inhibitory concentration, two-fold serial dilution, MRSA KCCM 40510; details: Staphylococcus aureus
Description: as §5, §6

MRSA (KCCM 40511) [4] = experiment: Minimum inhibitory concentration, two-fold serial dilution, MRSA KCCM 40511; details: Staphylococcus aureus
Description: as §5, §6

[5] = in combination with phlorofucofuroeckol-A at 12.5 μg/ml, read-out: MIC of β-lactam (B)
[6] = in combination with phlorofucofuroeckol-A at 25 μg/ml, read-out: MIC of β-lactam (C)
[7] = without phlorofucofuroeckol-A, read-out: MIC of β-lactam (A)
[8] = Table 5, PFF and β-lactams, mecA negative strain, read-out: MIC
[9] = Table 6, isolated phlorotannins, read-out: MIC
[10] = Table 5, PFF and β-lactams, mecA positive strain, read-out: MIC

| Compound | MIC (MRSA (KCCM 40510) [1]; [5]) [mg/L] | MIC (MRSA (KCCM 40510) [1]; [6]) [mg/L] | MIC (MRSA (KCCM 40510) [1]; [7]) [mg/L] | FIC index (b) (MRSA (KCCM 40510) [1]) | FIC index (c) (MRSA (KCCM 40510) [1]) | MIC (MSSA (KCTC 1927); [8]) [mg/L] | MIC (MSSA (KCCTC 1927); [5]) [mg/L] | MIC (MSSA (KCCTC 1927); [6]) [mg/L] | MIC (MSSA (KCCTC 1927); [7]) [mg/L] | FIC index (b) (MSSA (KCCTC 1927)) | FIC index (c) (MSSA (KCCTC 1927)) | MIC (MRSA (KCCM 40511) [2]; [5]) [mg/L] | MIC (MRSA (KCCM 40511) [2]; [6]) [mg/L] | MIC (MRSA (KCCM 40511) [2]; [7]) [mg/L] | FIC index (b) (MRSA (KCCM 40511) [2]) | FIC index (c) (MRSA (KCCM 40511) [2]) | MIC (MRSA (KCCM 40511) [4]) [mg/L] | MIC (MRSA (KCCM 40510) [3]; [9]) [mg/L] | MIC (MSSA (KCTC 1927); [9]) [mg/L] | other results |
| --- | --- | --- | --- | --- | --- | --- | --- | --- | --- | --- | --- | --- | --- | --- | --- | --- | --- | --- | --- | --- |
| CC1(C)S[C@@H]2[C@H](NC(=O)[C@H](N)c3ccccc3)C(=O)N2[C@H]1C(=O)O [Ampicillin, ampicillin] | 16 | 8 | 512 | 0.422 | 0.407 | 0.063 (≈ 0.18 µM) | 0.063 | 0.063 | 0.063 | 1.391 | 1.781 | 2 | 1 | 512 | 0.395 | 0.393 | – | – | – | – |
| Oc1cc(O)c2oc3cc(O)c4oc5cc(O)cc(O)c5oc4c3oc2c1 [DD, dioxinodehydroeckol] | – | – | – | – | – | – | – | – | – | – | – | – | – | – | – | – | 64 (≈ 173 µM) | – | – | MIC (MRSA (KCCM 40510) [3]): 64 mg/L (≈ 173 µM); MIC (MSSA (KCTC 1927)): 64 mg/L (≈ 173 µM) |
| Oc1cc(O)cc(Oc2c(O)cc(O)c3c2Oc2c(O)cc(Oc4c(O)cc(Oc5c(O)cc(O)c6c5Oc5c(O)cc(O)cc5O6)cc4O)cc2O3)c1 [DE, dieckol] | – | – | – | – | – | – | – | – | – | – | – | – | – | – | – | – | 64 (≈ 86.2 µM) | 32 (≈ 43.1 µM) | 32 (≈ 43.1 µM) | – |
| Oc1cc(O)cc(Oc2c(O)cc(O)c3c2Oc2c(O)cc(O)cc2O3)c1 [EK, eckol] | – | – | – | – | – | – | – | – | – | – | – | – | – | – | – | – | – | 64 (≈ 172 µM) | 64 (≈ 172 µM) | MIC (MRSA (KCCM 40511) [4]; [9]): 64 mg/L (≈ 172 µM) |
| Cc1onc(-c2ccccc2)c1C(=O)N[C@@H]1C(=O)N2[C@@H]1SC(C)(C)[C@@H]2C(=O)O [Oxacillin, oxacillin] | 8 | 4 | 256 | 0.422 | 0.407 | 0.063 (≈ 0.157 µM) | 0.063 | 0.063 | 0.063 | 1.391 | 1.781 | 1 | 0.5 | 128 | 0.399 | 0.395 | – | – | – | MIC (MRSA (KCCM 40510) [3]; [10]): 256 mg/L (≈ 638 µM); MIC (MRSA (KCCM 40511) [4]; [10]): 128 mg/L (≈ 319 µM) |
